{"source": "PubChem BioAssay AID2060888", "about": "(Molecular Pharmacology Branch, DTP, NCI, 2025);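 also: viability read after seven days of drug exposure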;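 as to viability, T/C: 100% = DMSO vehicle control viability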", "test_system": "695427-040-R-J1-PDC complex spheroid viability", "test": "Anticancer human tumor 695427-040-R-J1-PDC patient-derived colon adenocarcinoma cell line growth inhibition [RAS]", "conditions": "for viability, T/C: stronger effect = lower value", "how_it_was_run": "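Tumour cells grown as complex spheroids with HUVEC endothelial cells and mesenchymal stem cells, treated with RAS pathway inhibitor combinations. Each agent spans half-log steps from near clinical Cmax, or 10 microM where Cmax is unknown.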", "data": [{"smiles": "CC(C)n1nc(-c2ccc3oc(N)nc3c2)c2c(N)ncnc21", "note": "+ C#Cc1c(F)ccc2cc(O)cc(-c3ncc4c(N5CC6CCC(C5)N6)nc(OCC56CCCN5CC(F)C6)nc4c3F)c12", "values": [{"measurement": "IC50", "setting": "curve of first compound, second compound 0.0316 µM", "value": "> 100", "unit": "nM"}, {"measurement": "IC50", "setting": "curve of first compound, second compound 0.1 µM", "value": "> 100", "unit": "nM"}, {"measurement": "IC50", "setting": "curve of first compound, second compound 0.316 µM", "value": "> 100", "unit": "nM"}, {"measurement": "IC50", "setting": "curve of first compound, second compound 1 µM", "value": 22.5, "unit": "nM"}, {"measurement": "IC50", "setting": "curve of first compound, second compound 3.16 µM", "value": 2.77, "unit": "nM"}, {"measurement": "IC50", "setting": "curve of first compound, second compound 10 µM", "value": "< 0.316", "unit": "nM"}, {"measurement": "viability, T/C", "setting": "second compound 0.0316 µM, first compound 0.000316 µM", "value": 105, "unit": "%"}, {"measurement": "viability, T/C", "setting": "second compound 0.0316 µM, first compound 0.001 µM", "value": 95.1, "unit": "%"}, {"measurement": "viability, T/C", "setting": "second compound 0.0316 µM, first compound 0.00316 µM", "value": 88.5, "unit": "%"}, {"measurement": "viability, T/C", "setting": "second compound 0.0316 µM, first compound 0.01 µM", "value": 75.7, "unit": "%"}, {"measurement": "viability, T/C", "setting": "second compound 0.0316 µM, first compound 0.0316 µM", "value": 70.3, "unit": "%"}, {"measurement": "viability, T/C", "setting": "second compound 0.0316 µM, first compound 0.1 µM", "value": 62.6, "unit": "%"}, {"measurement": "viability, T/C", "setting": "second compound 0.1 µM, first compound 0.000316 µM", "value": 93.9, "unit": "%"}, {"measurement": "viability, T/C", "setting": "second compound 0.1 µM, first compound 0.001 µM", "value": 89.4, "unit": "%"}, {"measurement": "viability, T/C", "setting": "second compound 0.1 µM, first compound 0.00316 µM", "value": 90, "unit": "%"}, {"measurement": "viability, T/C", "setting": "second compound 0.1 µM, first compound 0.01 µM", "value": 74.9, "unit": "%"}, {"measurement": "viability, T/C", "setting": "second compound 0.1 µM, first compound 0.0316 µM", "value": 74.7, "unit": "%"}, {"measurement": "viability, T/C", "setting": "second compound 0.1 µM, first compound 0.1 µM", "value": 55.9, "unit": "%"}, {"measurement": "viability, T/C", "setting": "second compound 0.316 µM, first compound 0.000316 µM", "value": 91.9, "unit": "%"}, {"measurement": "viability, T/C", "setting": "second compound 0.316 µM, first compound 0.001 µM", "value": 80.9, "unit": "%"}, {"measurement": "viability, T/C", "setting": "second compound 0.316 µM, first compound 0.00316 µM", "value": 78.6, "unit": "%"}, {"measurement": "viability, T/C", "setting": "second compound 0.316 µM, first compound 0.01 µM", "value": 68.8, "unit": "%"}, {"measurement": "viability, T/C", "setting": "second compound 0.316 µM, first compound 0.0316 µM", "value": 61.5, "unit": "%"}, {"measurement": "viability, T/C", "setting": "second compound 0.316 µM, first compound 0.1 µM", "value": 50.5, "unit": "%"}, {"measurement": "viability, T/C", "setting": "second compound 1 µM, first compound 0.000316 µM", "value": 69.5, "unit": "%"}, {"measurement": "viability, T/C", "setting": "second compound 1 µM, first compound 0.001 µM", "value": 64.3, "unit": "%"}, {"measurement": "viability, T/C", "setting": "second compound 1 µM, first compound 0.00316 µM", "value": 63, "unit": "%"}, {"measurement": "viability, T/C", "setting": "second compound 1 µM, first compound 0.01 µM", "value": 52.4, "unit": "%"}, {"measurement": "viability, T/C", "setting": "second compound 1 µM, first compound 0.0316 µM", "value": 47.8, "unit": "%"}, {"measurement": "viability, T/C", "setting": "second compound 1 µM, first compound 0.1 µM", "value": 42.1, "unit": "%"}, {"measurement": "viability, T/C", "setting": "second compound 3.16 µM, first compound 0.000316 µM", "value": 51.1, "unit": "%"}, {"measurement": "viability, T/C", "setting": "second compound 3.16 µM, first compound 0.001 µM", "value": 58.7, "unit": "%"}, {"measurement": "viability, T/C", "setting": "second compound 3.16 µM, first compound 0.00316 µM", "value": 47.4, "unit": "%"}, {"measurement": "viability, T/C", "setting": "second compound 3.16 µM, first compound 0.01 µM", "value": 42.1, "unit": "%"}, {"measurement": "viability, T/C", "setting": "second compound 3.16 µM, first compound 0.0316 µM", "value": 35.4, "unit": "%"}, {"measurement": "viability, T/C", "setting": "second compound 3.16 µM, first compound 0.1 µM", "value": 26.7, "unit": "%"}, {"measurement": "viability, T/C", "setting": "second compound 10 µM, first compound 0.000316 µM", "value": 41.5, "unit": "%"}, {"measurement": "viability, T/C", "setting": "second compound 10 µM, first compound 0.001 µM", "value": 33.5, "unit": "%"}, {"measurement": "viability, T/C", "setting": "second compound 10 µM, first compound 0.00316 µM", "value": 35, "unit": "%"}, {"measurement": "viability, T/C", "setting": "second compound 10 µM, first compound 0.01 µM", "value": 27, "unit": "%"}, {"measurement": "viability, T/C", "setting": "second compound 10 µM, first compound 0.0316 µM", "value": 25, "unit": "%"}, {"measurement": "viability, T/C", "setting": "second compound 10 µM, first compound 0.1 µM", "value": 14.5, "unit": "%"}]}, {"smiles": "O=C(c1ccc(F)c(F)c1Nc1ccc(I)cc1F)N1CC(O)([C@@H]2CCCCN2)C1", "values": [{"measurement": "viability, T/C", "setting": "compound 0.00316 µM", "value": "96.2% [middle of 4 runs]"}, {"measurement": "viability, T/C", "setting": "compound 0.0316 µM", "value": "63.3% [middle of 4 runs]"}, {"measurement": "viability, T/C", "setting": "compound 0.1 µM", "value": "50.1% [middle of 4 runs]"}, {"measurement": "viability, T/C", "setting": "compound 0.316 µM", "value": "23.3% [middle of 4 runs]"}, {"measurement": "viability, T/C", "setting": "compound 1 µM", "value": "6.95% [middle of 4 runs]"}, {"measurement": "IC50", "setting": "curve of compound", "value": "77.1 nM [middle of 4 runs]"}]}, {"smiles": "CC(=O)OC12COC1CC(O)C1(C)C(=O)C(O)C3=C(C)C(OC(=O)C(O)C(NC(=O)OC(C)(C)C)c4ccccc4)CC(O)(C(OC(=O)c4ccccc4)C21)C3(C)C", "note": "(stereo not given) + CCn1c(-c2cc(N3CCN(C)CC3)cnc2C(C)OC)c2c3cc(ccc31)-c1csc(n1)CC(NC(=O)C1CC1C)C(=O)N1CCCC(N1)C(=O)OCC(C)(C)C2", "values": [{"measurement": "IC50", "setting": "curve of first compound, second compound 0.000949 µM", "value": "> 10000", "unit": "nM"}, {"measurement": "IC50", "setting": "curve of first compound, second compound 0.003 µM", "value": "> 10000", "unit": "nM"}, {"measurement": "IC50", "setting": "curve of first compound, second compound 0.00949 µM", "value": 292, "unit": "nM"}, {"measurement": "IC50", "setting": "curve of first compound, second compound 0.03 µM", "value": 36.3, "unit": "nM"}, {"measurement": "IC50", "setting": "curve of first compound, second compound 0.0949 µM", "value": "< 31.6", "unit": "nM"}, {"measurement": "IC50", "setting": "curve of first compound, second compound 0.3 µM", "value": "< 31.6", "unit": "nM"}, {"measurement": "viability, T/C", "setting": "second compound 0.000949 µM, first compound 0.0316 µM", "value": 78.2, "unit": "%"}, {"measurement": "viability, T/C", "setting": "second compound 0.000949 µM, first compound 0.1 µM", "value": 73.5, "unit": "%"}, {"measurement": "viability, T/C", "setting": "second compound 0.000949 µM, first compound 0.316 µM", "value": 68.7, "unit": "%"}, {"measurement": "viability, T/C", "setting": "second compound 0.000949 µM, first compound 1 µM", "value": 57.2, "unit": "%"}, {"measurement": "viability, T/C", "setting": "second compound 0.000949 µM, first compound 3.16 µM", "value": 73.5, "unit": "%"}, {"measurement": "viability, T/C", "setting": "second compound 0.000949 µM, first compound 10 µM", "value": 52.7, "unit": "%"}, {"measurement": "viability, T/C", "setting": "second compound 0.003 µM, first compound 0.0316 µM", "value": 81.4, "unit": "%"}, {"measurement": "viability, T/C", "setting": "second compound 0.003 µM, first compound 0.1 µM", "value": 70.2, "unit": "%"}, {"measurement": "viability, T/C", "setting": "second compound 0.003 µM, first compound 0.316 µM", "value": 59.7, "unit": "%"}, {"measurement": "viability, T/C", "setting": "second compound 0.003 µM, first compound 1 µM", "value": 60.6, "unit": "%"}, {"measurement": "viability, T/C", "setting": "second compound 0.003 µM, first compound 3.16 µM", "value": 56.5, "unit": "%"}, {"measurement": "viability, T/C", "setting": "second compound 0.003 µM, first compound 10 µM", "value": 65.4, "unit": "%"}, {"measurement": "viability, T/C", "setting": "second compound 0.00949 µM, first compound 0.0316 µM", "value": 75.3, "unit": "%"}, {"measurement": "viability, T/C", "setting": "second compound 0.00949 µM, first compound 0.1 µM", "value": 53.5, "unit": "%"}, {"measurement": "viability, T/C", "setting": "second compound 0.00949 µM, first compound 0.316 µM", "value": 52.1, "unit": "%"}, {"measurement": "viability, T/C", "setting": "second compound 0.00949 µM, first compound 1 µM", "value": 44.7, "unit": "%"}, {"measurement": "viability, T/C", "setting": "second compound 0.00949 µM, first compound 3.16 µM", "value": 49.7, "unit": "%"}, {"measurement": "viability, T/C", "setting": "second compound 0.00949 µM, first compound 10 µM", "value": 34.3, "unit": "%"}, {"measurement": "viability, T/C", "setting": "second compound 0.03 µM, first compound 0.0316 µM", "value": 58.1, "unit": "%"}, {"measurement": "viability, T/C", "setting": "second compound 0.03 µM, first compound 0.1 µM", "value": 38.6, "unit": "%"}, {"measurement": "viability, T/C", "setting": "second compound 0.03 µM, first compound 0.316 µM", "value": 42.1, "unit": "%"}, {"measurement": "viability, T/C", "setting": "second compound 0.03 µM, first compound 1 µM", "value": 44.8, "unit": "%"}, {"measurement": "viability, T/C", "setting": "second compound 0.03 µM, first compound 3.16 µM", "value": 42.9, "unit": "%"}, {"measurement": "viability, T/C", "setting": "second compound 0.03 µM, first compound 10 µM", "value": 36.3, "unit": "%"}, {"measurement": "viability, T/C", "setting": "second compound 0.0949 µM, first compound 0.0316 µM", "value": 36.5, "unit": "%"}, {"measurement": "viability, T/C", "setting": "second compound 0.0949 µM, first compound 0.1 µM", "value": 36.6, "unit": "%"}, {"measurement": "viability, T/C", "setting": "second compound 0.0949 µM, first compound 0.316 µM", "value": 36.4, "unit": "%"}, {"measurement": "viability, T/C", "setting": "second compound 0.0949 µM, first compound 1 µM", "value": 33.3, "unit": "%"}, {"measurement": "viability, T/C", "setting": "second compound 0.0949 µM, first compound 3.16 µM", "value": 32.4, "unit": "%"}, {"measurement": "viability, T/C", "setting": "second compound 0.0949 µM, first compound 10 µM", "value": 29.6, "unit": "%"}, {"measurement": "viability, T/C", "setting": "second compound 0.3 µM, first compound 0.0316 µM", "value": 35.2, "unit": "%"}, {"measurement": "viability, T/C", "setting": "second compound 0.3 µM, first compound 0.1 µM", "value": 28.4, "unit": "%"}, {"measurement": "viability, T/C", "setting": "second compound 0.3 µM, first compound 0.316 µM", "value": 33.9, "unit": "%"}, {"measurement": "viability, T/C", "setting": "second compound 0.3 µM, first compound 1 µM", "value": 26.9, "unit": "%"}, {"measurement": "viability, T/C", "setting": "second compound 0.3 µM, first compound 3.16 µM", "value": 30.9, "unit": "%"}, {"measurement": "viability, T/C", "setting": "second compound 0.3 µM, first compound 10 µM", "value": 27.1, "unit": "%"}]}]}
